From patent US11691951B2 (Curtana Pharmaceuticals, Inc., priority 2015, dated 2023)
Counter-ions that a name gives are not always drawn.

Columns and labels:
[1] = tested on: GBM8 cells (human glioblastoma neurosphere cell culture); test: GBM8 viability assay (Cell Titer Glo luminescence, 3 days); format: cell-based; details: 72 h, 3 days incubation
Summary of the method: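 Patient-derived neurosphere cells (4000/well) in NeuroCult medium with rh EGF, rh bFGF and heparin, ultra-low attachment, dosed after overnight settling; 3 days at 37 °C. CellTiter-Glo luminescence versus DMSO controls gave % growth inhibition; IC50 from 4-parameter fit of serial dilutions.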

[2] = tested on: GBM4 cells (human glioblastoma neurosphere cell culture); test: GBM4 viability assay (Cell Titer Glo luminescence, 3 days); format: cell-based; details: 72 h, 3 days incubation
Procedure: Example 283: GBM4 and GBM8 Viability Assay
Cell culture medium was prepared from a NSA proliferation kit (Neurocult) and NeuroCult supplements (Stemcell Tech Cat. #05751) and treated with 20 μL of 10 μg/mL rh EGF, 10 μL of 10 μg/mL rh bFGF and 10 μL of 0.2% Heparin. In this medium, human glioblastoma cells were cultured in ultra-low attachment tissue culture flasks until 1×10^6 cells ml was achieved (GBM4 and GBM8 are distinct neurosphere cell cultures derived from these human patient tissues). GBM4 and GBM8 cells were dissociated and 10 mL of media containing 4000 human glioblastoma cells per 90 uL were transferred to an ultra-low binding 96-well plate and incubated at 37° C. overnight. On the following day, 10 μL of a 1% DMSO solution of test compound in assay medium was added to wells containing the cell suspension and the mixture incubated at 37° C. for 3 days. At this time, the plate was removed from the incubator and allowed to reach room temperature. After about 30 minutes, 50 μL of Cell Titer Glo solution was added to each well and the plate shaken for 1 minute at low speed. After 10 minutes luminescence was recorded using a Tecan Safire2 reader.
Reduction in luminescence compared to DMSO only control wells was used to determine the percentage inhibition of cell growth. IC50s were calculated using the % inhibition of luminescence for serial dilutions of compounds fitted to a 4-parameter fit within the Prism (San Diego) curve fitting program.

Row | Compound | IC50 [1] [µM] | IC50 [2] [µM]
1 | Cc1cc(NCCCN(C)C)nc(NC(=O)Nc2ccc(Cl)c(Cl)c2)n1 [Compound 8, 1-{2-[3-(3,4-Dichlorophenyl)ureido]-6-methyl-pyrimidin-4-yl}-amino-3-(dimethylamino)propane] | < 1 | < 1
2 | Cc1cc(Nc2ccncc2)nc(NC(=O)Nc2ccc(Cl)c(Cl)c2)n1 [Compound 39, 2-[3-(3,4-dichlorophenyl)ureido]-6-methyl-4-(4-pyridylamino)-pyrimidine] | 1 to 10 | 1 to 10
3 | CCN1CCCC(Nc2cc(C)nc(NC(=O)Nc3ccc(Cl)c(Cl)c3)n2)C1 (racemic) [Compound 30, (±)-2-[3-(3,4-dichlorophenyl)ureido]-4-(1-ethyl-piperidin-3-yl-amino)-6-methylpyrimidine] | 10 to 30 | 10 to 30
4 | CNCCN(C)c1cc(C)nc(NC(=O)Nc2ccc(Cl)c(Cl)c2)n1 [Compound 6, 1-(N-methyl{2-[3-(3,4-dichlorophenyl)ureido]-6-methyl-4-pyrimidinyl}amino)-2-(methylamino)ethane] | 1 to 10 | 1 to 10
5 | Cc1cc(NC2CCCNC2)nc(NC(=O)Nc2ccc(Cl)c(Cl)c2)n1 (racemic) [Compound 24, (±)-2-[3-(3,4-dichlorophenyl)ureido]-6-methyl-4-(3-piperidylamino)pyrimidine hydrochloride] | < 1 | < 1
6 | Cc1cc(N2CCN(C)CC2)nc(NC(=O)Nc2ccc(Cl)c(Cl)c2)n1 [Compound 5, 1-(3,4-dichlorophenyl)-3-{6-methyl-4-(4-methyl-piperazin-1-yl-)pyrimidin-2-yl}-urea] |  | 10 to 30

Next, values leading:

Row | IC50 [1] [µM] | IC50 [2] [µM] | Compound
7 | 1 to 10 | 10 to 30 | CCN1CCCC(Nc2cc(C)nc(N3CCN(c4ccc(Cl)c(Cl)c4)C3=O)n2)C1 (racemic) [Compound 34, (±)-1-(3,4-dichlorophenyl)-3-[4-(1-ethyl-3-piperidylamino)-6-methyl-2-pyrimidinyl]-2-imidazolidinone]
8 | 1 to 10 | 10 to 30 | Cc1cc(N2CCOCC2)nc(NC(=O)Nc2ccc(Cl)c(Cl)c2)n1 [Compound 4, 1-(3,4-dichlorophenyl)-3-(6-methyl-4-morpholino-2-pyrimidinyl) Urea]
9 | < 1 | < 1 | Cc1cc(NCCCO)nc(NC(=O)Nc2ccc(Cl)c(Cl)c2)n1 [Compound 7, 3-{2-[3-(3,4-dichlorophenyl)ureido]-6-methyl-pyrimidin-4-yl}-aminopropanol]
